Test results as given in patent publication US11246849B2, “Nerve growth promoter” (LAIMU CORPORATION, priority 2017, dated 2022).

Test system: PCl2 cells
Assay: Bt2cAMP concentration dependency of neurite formation rate (preliminary experiment)
Assay type: cell-based, rat
Conditions: Bt2cAMP concentration in the medium 1.0 mM; 24 hours; FIG. 1
Protocol: Using rat adrenal medullary pheochromocytoma-derived PCl2 cells obtained from Riken BioResource Research Center as a model, the L-valine solutions prepared in Preparation Examples were evaluated for the neurite formation effect and the neural differential promoting effect thereof. When acted on by Bt2cAMP (dibutyryladenosine 3′,5′-cyclic monophosphate) or NGF, the PCl2 cells are known to stop growing and to grow nerve fibers and elongate sympathetic ganglionic neuron-like dendrites. Here, L-valine was introduced into the Bt2cAMP-inductive neurite formation process and the NGF-inductive neural differentiation process to thereby evaluate the neurite formation effect and the neural differentiation promoting effect thereof, and the effect of L-valine was compared with that of L-leucine and L-isolencine. Here, the PCl2 cells were cultivated using an RPMI-1640 medium containing 10% equine serum (inactivated), 5% bovine fetal serum (inactivated), 100 U/mL penicillin G and 100 μg/mL streptomycin, in a 5% CO2 vapor phase in an incubator at 37° C., and the resultant cells in an about 70% confluent state were peeled with a basal medium and used in the experiment. […] In FIG. 1, the neurite formation rate is expressed as ±SD, and SD is a standard deviation of the three experiments carried out in the same manner. […]

Structure (SMILES)	neurite formation rate (maximum) [%]
CCCC(=O)Nc1ncnc2c1ncn2[C@@H]1O[C@@H]2COP(=O)(O)O[C@H]2[C@H]1OC(=O)CCC [Bt2cAMP, dibutyryladenosine 3′,5′-cyclic monophosphate]	19.5

Test system: PCl2 cells
Assay: Bt2cAMP-inductive neurite formation effect
Assay type: cell-based, rat
Conditions: 0.5 mM Bt2cAMP; RPMI-1640; 0.2 μM or 2 μM; FIG. 4
Protocol: (§1) Using rat adrenal medullary pheochromocytoma-derived PCl2 cells obtained from Riken BioResource Research Center as a model, the L-valine solutions prepared in Preparation Examples were evaluated for the neurite formation effect and the neural differential promoting effect thereof. When acted on by Bt2cAMP (dibutyryladenosine 3′,5′-cyclic monophosphate) or NGF, the PCl2 cells are known to stop growing and to grow nerve fibers and elongate sympathetic ganglionic neuron-like dendrites. Here, L-valine was introduced into the Bt2cAMP-inductive neurite formation process and the NGF-inductive neural differentiation process to thereby evaluate the neurite formation effect and the neural differentiation promoting effect thereof, and the effect of L-valine was compared with that of L-leucine and L-isolencine.
(§2) Here, the PCl2 cells were cultivated using an RPMI-1640 medium containing 10% equine serum (inactivated), 5% bovine fetal serum (inactivated), 100 U/mL penicillin G and 100 μg/mL streptomycin, in a 5% CO2 vapor phase in an incubator at 37° C., and the resultant cells in an about 70% confluent state were peeled with a basal medium and used in the experiment. In the following, the medium having the same composition as the medium used in cultivation of the PCl2 cells is referred to as “basal medium”.
Here, for the judgement of positivity or negativity, 300 to 400 cells/well were observed.
In the same manner as in the above-mentioned preliminary experiment, a suspension of PCl2 cells was sown in a collagen-coated 96-well plate at 4.0×10^3 cells/90 μL/well, and cultivated therein in a 5% CO2 vapor phase at 37° C. for 24 hours. After the cultivation, Dulbecco PBS(−) containing 10 mM Bt2cAMP, and the L-valine solution prepared in Preparation Example 1 or Preparation Example 2 were added to each well each in an amount of 5 μL/well, and the cells were further cultivated for 24 hours. At this time, the Bt2cAMP concentration in the medium in each well was 0.5 mM.
Next, co-addition of valine and methionine to a medium was checked for the effect. In the same manner as above, Bt2cAMP was added to an RPMI-1640 medium where PCl2 cells were sown and cultivated in each well, and further, an L-valine solution, an L-methionine solution, or a solution of a mixture prepared by mixing L-valine and L-methionine at 1/1 was added thereto and the cells were further cultivated to check for the neurite formation rate. Regarding the concentration of the amino acid added to the RPMI-1640 medium, the concentration in the system using the L-valine solution or the L-methionine solution was 0.2 μM, and the concentration of L-valine and L-methionine in the system using the L-valine and L-methionine mixture solution was 0.1 μM each, totaling 0.2 μM.

Structure (SMILES)	neurite formation promoting effect compared with L-valine
CC(C)[C@@H](N)C(=O)O [D-valine]	same neurite formation promoting effect like that of L-valine
CC(=O)N[C@H](C(=O)O)C(C)C [N-acetyl-L-valine]	same neurite formation promoting effect like that of L-valine

Same assay, conditions: 0.5 mM Bt2cAMP; RPMI-1640; amino acid concentration increased up to 200 μM

Structure (SMILES)	change in the neurite formation ratio
C[C@H](N)C(=O)O [alanine]	could not provide any significant change
N=C(N)NCCC[C@H](N)C(=O)O [arginine]	could not provide any significant change
NC(=O)C[C@H](N)C(=O)O [asparagine]	could not provide any significant change
N[C@@H](CC(=O)O)C(=O)O [aspartic acid]	could not provide any significant change
N[C@@H](CS)C(=O)O [cysteine]	could not provide any significant change
N[C@@H](CCC(=O)O)C(=O)O [glutamic acid]	could not provide any significant change
NC(=O)CC[C@H](N)C(=O)O [glutamine]	could not provide any significant change
NCC(=O)O [glycine]	could not provide any significant change
N[C@@H](Cc1c[nH]cn1)C(=O)O [histidine]	could not provide any significant change
NCCCC[C@H](N)C(=O)O [lysine]	could not provide any significant change
N[C@@H](Cc1ccccc1)C(=O)O [phenylalanine]	could not provide any significant change
O=C(O)[C@@H]1CCCN1 [proline]	could not provide any significant change
N[C@@H](CO)C(=O)O [serine]	could not provide any significant change
C[C@@H](O)[C@H](N)C(=O)O [threonine]	could not provide any significant change
N[C@@H](Cc1c[nH]c2ccccc12)C(=O)O [tryptophan]	could not provide any significant change
N[C@@H](Cc1ccc(O)cc1)C(=O)O [tyrosine]	could not provide any significant change

Same assay, conditions: 0.5 mM Bt2cAMP; RPMI-1640; high concentration of 20 μM; FIG. 5

Structure (SMILES)	neurite formation promoting effect
CSCC[C@@H](N)C(=O)O [D-methionine]	exhibited the neurite formation promoting effect
CSCC[C@H](N)C(=O)O [L-methionine]	exhibited the neurite formation promoting effect

Same assay, conditions: 0.5 mM Bt2cAMP; amino acid 0.02 or 0.2 μg/mL in RPMI-1640 (FIG. 2), 0.02 μg/mL in Nutrient Mixture F-12 Ham (FIG. 3); 24 hours

Structure (SMILES)	neurite formation promoting effect
CC[C@H](C)[C@H](N)C(=O)O [L-isoleucine]	could not be recognized
CC(C)C[C@H](N)C(=O)O [L-leucine]	could not be recognized
CC(C)[C@H](N)C(=O)O [L-valine]	significantly promoted

Test system: PCl2 cells
Assay: NGF-inductive neural differentiation, neurofilament immunofluorescent staining
Assay type: cell-based, rat
Conditions: NGF plus L-valine (sample 1) versus NGF only (comparative sample 2); 48 hours; FIG. 7
Protocol: as §1, §2
A neurofilament was used as a neural differentiation marker. […]

Structure (SMILES)	neurofilaments (bright spots in FITC fluorescently-stained image) versus NGF alone
CC(C)[C@H](N)C(=O)O [L-valine]	larger number of bright spots
